According to patent publication US20040102454A1, “Phenylahistin and the phenylahistin analogs, a new class of anti-tumor compounds” (priority 1998, published 2004):
≈ marks a conversion by molar mass, not a printed value.

How the values were obtained:
[1] = Solubility of phenylahistin in solvents; type: physicochemical
[2] = tested on: A-549 cells derived from human lung cancer; assay: Cell proliferation inhibition, MTT (Example 2); type: cell-based; conditions: A549, read-out: IC50 (concentration that inhibited cell proliferation 50%), A-549, 48 hours
Method: Into each well of a 96-well microtiter plate, 100 μl of A-549 cells derived from human lung cancer prepared to 10^5 cells/ml in a culture medium obtained by adding 10% bovine fetus serum to EMEM culture medium (Nissui Seiyaku Co., Ltd.) having antitumor effect against A-549 cells derived from human lung cancer was placed. Methanol solution of racemic NSCL-96F037 obtained as in Example 1 was added to the wells of the uppermost row, specimens were diluted by the half-log dilution method and added, and the plate was incubated in a carbon dioxide gas incubator at 37° C. for 48 hours. The result was added in lots of 10 μl with MTT reagent (3-(4,5-dimethyl-2-thiazole)-2,5-diphenyl-2H-tetra bromide) (1 mg/ml•PBS), followed by incubation in a carbon dioxide gas incubator at 37° C. for 6 hours. The culture medium was discarded and the crystal of produced in the cells was dissolved in 100 μl/well of dimethylsulfoxide. Absorption of 595 nm light was then measured with a microplate reader.

[3] = tested on: Aspergillus niger IFO6341; assay: Antimicrobial test, filter paper agar flat plate method; type: cell-based; conditions: 100 μg of specimen on 9 mm filter paper
Method: (§1) Using colibacillus strain JM109 as a gram-negative bacterium, Bacillus natto as a […] and Aspergillus niger IFO6341 as a mold, the following antimicrobial test was conducted by the filter paper agar flat plate method, wherein 100 μg of specimen was placed on 9 mm filter paper, dried in air, and standard agar culture medium was used for bacteria and potato dextrose agar culture medium for mold. […] An antimicrobial test was further conducted by the liquid culture medium dilution method using the yeast strain Saccharomyces cerevisise HF7C.

Bacillus natto = assay: as above; type: cell-based; conditions: 100 μg of specimen on 9 mm filter paper
Method: as §1

[4] = tested on: colibacillus strain JM109; assay: as above; type: cell-based; conditions: 100 μg of specimen on 9 mm filter paper
Method: as §1

[5] = tested on: P388 murine leukemia cells; assay: Cytotoxic effects of the phenylahistin enantiomers (Example 8); type: cell-based; conditions: Mus musculus, (−) 92.2% e.e., (+) 97.8% e.e.
From the text: The cytotoxic effects of the enantiomers of phenylahistin on P388 murine leukemia cells were examined. […] Judging from the content of (−)-phenylahistin in (+)-phenylahistin, (+)-phenylahistin was considered to have relatively low cytotoxicity to P388 cells.

[6] = tested on: Microtubule protein from bovine brain; assay: Microtubule protein polymerization assay (turbidity); type: biochemical
A549 cells = assay: Mitotic index; type: cell-based, human
Method: Exponentially growing A549 cells were seeded into 96-well tissue culture plates (2×10^3 cells/100:1/well) and cultured for 16 hours. (−)-PLH or CLC was then added to each well at various concentrations, and the plates were incubated for an additional 24 hours. The number of cells in mitosis (round cells) and total cells in eight randomly selected fields were counted under a phase-contrast microscope. In a series of preliminary studies, it was confirmed that the round cells in this condition were cells in mitosis by using flow cytometry and Hoechst 33258 staining. The mitotic index represented the percentage of round cells among the total number of cells in the eight selected fields.

bovine brain tubulin = assay: [^3H]CLC binding to tubulin and competition assay; conditions: Dixon plot, assuming competitive inhibition; 0.5 μM [^3H]CLC; read-out: estimated Ki value for CLC binding
Method: [^3H]CLC binding to tubulin was evaluated by the ultrafiltration method of Takahashi, M., et al., Biochim. Biophys. […] The concentration of unbound [^3H]CLC in the filtrates was determined using a EcoLite™(+) liquid scintillator from ICN Pharmaceuticals Inc. (Costa Mesa, Calif.). Specific bound [^3H]CLC concentrations were determined by adding an excess (×100) of unlabeled CLC to the reaction mixture.
For the competition assay, bovine brain tubulin (0.2 mg/ml) was incubated in the microtubule assembly buffer with 0.5 μM [^3H]CLC and various concentrations of competitors for 20 min at 37° C. [^3H]CLC binding was measured as described above.

| SMILES | solubility ([1]; in ethyl acetate, chloroform, methanol, and pyridine) | solubility ([1]; in water, benzene, and toluene) | IC50 [2] [µg/mL] | antimicrobial activity [3] | antimicrobial activity (Bacillus natto) | antimicrobial activity [4] | IC50 [5] [µM] | polymerization of microtubule protein ([6]; 80 μM) | turbidity increase at high concentration ([6]; concentrations up to 200 μM) | IC50 ([6]; microtubule protein 1.5 mg/ml (Table 4), read-out: IC50 for Microtubule Protein Polymerization) [µM] | mitotic index (A549 cells; 24 hours) | reversibility of the anti-mitotic effect (A549 cells; after washing and replacement with fresh medium) | Ki (bovine brain tubulin) [µM] |
| --- | --- | --- | --- | --- | --- | --- | --- | --- | --- | --- | --- | --- | --- |
| C=CC(C)(C)c1[nH]cnc1/C=C1\NC(=O)[C@H](Cc2ccccc2)NC1=O (racemic) [PLH, phenylahistin] | soluble | only slightly soluble | 0.3 (≈ 0.856 µM) | No antimicrobial activity | No antimicrobial activity | No antimicrobial activity |  |  |  |  |  |  |  |
| C=CC(C)(C)c1[nH]cnc1/C=C1\NC(=O)[C@H](Cc2ccccc2)NC1=O [(−)-phenylahistin] |  |  |  |  |  |  | 0.35 | completely inhibited | did not increase the turbidity | 25 | increased | reversible | 7.4 |
